Measured values from patent US12139498B1, “Positive allosteric modulators of the muscarinic acetylcholine receptor M4” (Vanderbilt University, priority 2023, dated 2024).

Target: T1, Human M4 (Homo sapiens, UniProt P08173)
T1 sequence (P08173 1-479): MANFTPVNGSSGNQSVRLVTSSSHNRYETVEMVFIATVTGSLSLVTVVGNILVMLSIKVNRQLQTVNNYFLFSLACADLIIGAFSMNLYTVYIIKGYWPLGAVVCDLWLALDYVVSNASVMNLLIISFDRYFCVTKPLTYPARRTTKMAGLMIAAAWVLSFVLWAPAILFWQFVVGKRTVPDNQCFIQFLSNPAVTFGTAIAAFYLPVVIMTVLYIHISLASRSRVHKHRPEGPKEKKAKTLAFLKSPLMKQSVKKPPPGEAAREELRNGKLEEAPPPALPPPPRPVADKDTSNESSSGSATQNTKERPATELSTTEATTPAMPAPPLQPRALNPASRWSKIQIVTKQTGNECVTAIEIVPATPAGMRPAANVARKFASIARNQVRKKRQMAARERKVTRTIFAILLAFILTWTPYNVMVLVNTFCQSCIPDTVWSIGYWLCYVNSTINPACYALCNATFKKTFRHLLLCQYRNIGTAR
Assay: M4 cell-based functional assay (calcium mobilization)
Parameters: expressed in transfected cells
Details: for Emax at 30 µM: % ACh maximum at 30 μM; for EC50: CHO-K1 hM4-Gqi5 cells, calcium flux, increase in EC20 acetylcholine response
Experimental: Human (h) and rat (r) M4 CDNAs, along with the chimeric G protein Gqi5, were transfected into Chinese hamster ovary (CHO-K1) cells purchased from the American Type Culture Collection using Lipofectamine2000. The transfected cells were subjected to selection antibiotic treatment to generate stable cell lines; G418 sulfate (1 mg/ml) for selecting M4 expressing cells and Hygromycin B (500 μg/mL) for selecting Gqi5 expressing cells. The resulting polyclones were further screened to obtain monoclones of hM4-Gqi5 and rM4-Gqi5 for compound screening assay. Stable monoclone cells were maintained in Ham's F-12 medium containing 10% heat-inactivated fetal bovine serum (FBS), 1× Antibiotic/Antimycotic, 20 mM HEPES, 500 μg/mL G418 sulfate, and 200 μg/mL Hygromycin B in 37° C. humidified incubators in the presence of 5% CO2.
The high throughput assay was employed to measure receptor-induced mobilization of intracellular calcium to determine compound activity. Test compound was added to cells expressing the muscarinic receptors that were loaded with calcium sensitive fluorescent dye. After a ˜2.5 minute incubation period, a submaximal (EC20) concentration of acetylcholine was added, and the response measured. This kinetic assay allows for simultaneous screening and potency determination of multiple pharmacological modes of action including agonist and potentiator activity. CHO-K1 cells stably expressing muscarinic receptors were plated in growth medium lacking G418 and hygromycin at 15,000 cells/20 μL/well in Greiner 384-well black-walled, tissue culture (TC)-treated, clear-bottom plates (Greiner Bio-One). Cells were incubated overnight at 37° C. and 5% CO2. The next day, calcium assay buffer (Hank's balanced salt solution (HBSS), 20 mM HEPES, 2.5 mM Probenecid, 4.16 mM sodium bicarbonate (Sigma-Aldrich, St. Louis, MO)) was prepared to dilute compounds, agonists, and Fluo-4-acetomethoxyester (Fluo-4-AM), fluorescent calcium indicator dye. Compounds were serially diluted 1:3 into 10 point concentration response curves in DMSO using the Bravo Liquid Handler (Agilent, Santa Clara, CA), transferred to a 384 well daughter plates using an Echo acoustic liquid handler (Beckman Coulter, Indianapolis, Indiana), and diluted in assay Buffer to a 2× final concentration. The agonist plates were prepared using acetylcholine (ACh, Sigma-Aldrich, St. Louis, MO) concentrations for the EC20 and ECMAX responses by diluting in assay buffer to a 5× final concentration. The 2× dye solution (2.3 μM) was prepared by mixing a 2.3 mM Fluo-4-AM stock in DMSO with 10% (w/v) pluronic acid F-127 in a 1:1 ratio in assay buffer. Using a microplate washer (BioTek, Winooski, VT), cells were washed with assay buffer for 3 times to remove medium. After the final wash, 20 μL of assay buffer remained in the cell plates. Immediately, 20 μL of the 2× dye solution (final 1.15 μM) was added to each well of the cell plate using a Multidrop Combi dispenser (Thermo Fisher, Waltham, MA). After cells were incubated with the dye solutions for 45 min at 37° C. in the presence of 5% CO2, the dye solutions were removed and replaced with assay buffer using a microplate washer, leaving 20 μL of assay buffer in the cell plate.
The prepared compound, agonist, and cell plates were placed inside the Functional Drug Screening System uCell (FDSS uCell, Hamamatsu, Japan) to measure the calcium flux.
The triple add protocol was used to measure Ca kinetics; Compound, ACh for EC2O, and ACh for EC80 adds in an order. Briefly, after establishment of a fluorescence baseline for 2 seconds (excitation, 480 nm; emission, 530 nm), first add occurred by adding 20 μL of test compound to the cells, and the response was measured for 140 seconds. This is followed by second add; 10 μL (5×) of an EC20 concentration of ACh agonist was added to the cells, and the response of the cells was measured for 125 seconds. […]

| Emax at 30 µM [%] | EC50 [nM] | SMILES |
| --- | --- | --- |
| 92 | 59 | Cc1cc(C#N)cnc1N1CCc2nc(Br)sc2C1 [Compound 1, 6-(2-bromo-6,7-dihydrothiazolo[5,4-c]pyridin-5(4H)-yl)-5-methylnicotinonitrile] |
| 59 | 612 | Cc1cc(-c2nc3c(s2)CN(c2ncc(C#N)cc2C)CC3)ccn1 [Compound 2, 5-methyl-6-(2-(2-methylpyridin-4-yl)-6,7-dihydrothiazolo[5,4-c]pyridin-5(4H)-yl)nicotinonitrile] |
| 45 | > 10000 | Cc1cc(C#N)cnc1N1CCc2nc(-c3cncs3)sc2C1 [Compound 3, 5-methyl-6-(2-(thiazol-5-yl)-6,7-dihydrothiazolo[5,4-c]pyridin-5(4H)-yl)nicotinonitrile] |
| 87 | 371 | Cc1nc2c(s1)CN(c1ncc(C#N)cc1C)CC2 [Compound 15, 5-methyl-6-(2-methyl-6,7-dihydrothiazolo[5,4-c]pyridin-5(4H)-yl)nicotinonitrile] |
| 84 | 103 | Cc1cc(C#N)cnc1N1CCc2nc(C3CC3)sc2C1 [Compound 16, 6-(2-cyclopropyl-6,7-dihydrothiazolo[5,4-c]pyridin-5(4H)-yl)-5-methylnicotinonitrile] |
| 92 | 3170 | Cc1cc(C#N)cnc1N1CCc2ncsc2C1 [Compound 17, 6-(6,7-dihydrothiazolo[5,4-c]pyridin-5(4H)-yl)-5-methylnicotinonitrile] |
| 44 | 4110 | Cc1cc(C#N)cnc1N1CCc2nc(NCc3cccc(F)c3)sc2C1 [Compound 18, 6-(2-((3-fluorobenzyl)amino)-6,7-dihydrothiazolo[5,4-c]pyridin-5(4H)-yl)-5-methylnicotinonitrile] |
| 101 | 243 | [2H]C([2H])([2H])c1nc2c(s1)CN(c1ncc(C#N)cc1C)CC2 [Compound 20, 5-methyl-6-(2-(methyl-d3)-6,7-dihydrothiazolo[5,4-c]pyridin-5(4H)-yl)nicotinonitrile] |
| 98 | 301 | Cc1cc(C#N)cnc1N1CCc2nc(C(N)=O)sc2C1 [Compound 21, 5-(5-cyano-3-methylpyridin-2-yl)-4,5,6,7-tetrahydrothiazolo[5,4-c]pyridine-2-carboxamide] |

The next lines start with the molecule.

| SMILES | Emax at 30 µM [%] | EC50 [nM] |
| --- | --- | --- |
| Cc1cc(C#N)cnc1N1CCc2nc(-c3cnn(C4CCC4)c3)sc2C1 [Compound 4, 6-(2-(1-cyclobutyl-1H-pyrazol-4-yl)-6,7-dihydrothiazolo[5,4-c]pyridin-5(4H)-yl)-5-methylnicotinonitrile] | 54 | > 10000 |
| Cc1c(C#N)nnc(N2CCc3nc(Nc4ccccc4F)sc3C2)c1C [Compound 5, 6-(2-((2-fluorophenyl)amino)-6,7-dihydrothiazolo[5,4-c]pyridin-5(4H)-yl)-4,5-dimethylpyridazine-3-carbonitrile] | 43 | > 10000 |
| Cc1c(C#N)nnc(N2CCc3nc(Nc4cccc(F)c4)sc3C2)c1C [Compound 6, 6-(2-((3-fluorophenyl)amino)-6,7-dihydrothiazolo[5,4-c]pyridin-5(4H)-yl)-4,5-dimethylpyridazine-3-carbonitrile] | 41 | > 10000 |
| Cc1c(C#N)nnc(N2CCc3nc(Nc4ccc(F)cc4)sc3C2)c1C [Compound 7, 6-(2-((4-fluorophenyl)amino)-6,7-dihydrothiazolo[5,4-c]pyridin-5(4H)-yl)-4,5-dimethylpyridazine-3-carbonitrile] | 49 | 1290 |
| COc1nc2c(s1)CN(c1nnc(C#N)c(C)c1C)CC2 [Compound 8, 6-(2-methoxy-6,7-dihydrothiazolo[5,4-c]pyridin-5(4H)-yl)-4,5-dimethylpyridazine-3-carbonitrile] | 79 | 732 |
| Cc1nc(Cl)c(C)c(N2CCc3nc(C)sc3C2)n1 [Compound 9, 5-(6-chloro-2,5-dimethylpyrimidin-4-yl)-2-methyl-4,5,6,7-tetrahydrothiazolo[5,4-c]pyridine] | 98 | 660 |
| Cc1c(C#N)nnc(N2CCc3nc(Br)sc3C2)c1C [Compound 10, 6-(2-bromo-6,7-dihydrothiazolo[5,4-c]pyridin-5(4H)-yl)-4,5-dimethylpyridazine-3-carbonitrile] | 85 | 114 |
| Cc1nc(Cl)c(C)c(N2CCc3nc(Br)sc3C2)n1 [Compound 11, 2-bromo-5-(6-chloro-2,5-dimethylpyrimidin-4-yl)-4,5,6,7-tetrahydrothiazolo[5,4-c]pyridine] | 85 | 103 |
| Cc1c(C#N)nnc(N2CCc3nc(C4CC4)sc3C2)c1C [Compound 12, 6-(2-cyclopropyl-6,7-dihydrothiazolo[5,4-c]pyridin-5(4H)-yl)-4,5-dimethylpyridazine-3-carbonitrile] | 76 | 161 |
| Cc1c(C#N)nnc(N2CCc3nc(C#N)sc3C2)c1C [Compound 13, 5-(6-cyano-4,5-dimethylpyridazin-3-yl)-4,5,6,7-tetrahydrothiazolo[5,4-c]pyridine-2-carbonitrile] | 78 | 1210 |
| Cc1nc(Cl)c(C)c(N2CCc3nc(Nc4ccccc4F)sc3C2)n1 [Compound 14, 5-(6-chloro-2,5-dimethylpyrimidin-4-yl)-N-(2-fluorophenyl)-4,5,6,7-tetrahydrothiazolo[5,4-c]pyridin-2-amine] | 51 | 5230 |
| Cc1cc(C#N)nnc1N1CCc2nc(Br)sc2C1 [Compound 19, 6-(2-bromo-6,7-dihydrothiazolo[5,4-c]pyridin-5(4H)-yl)-5-methylpyridazine-3-carbonitrile] | 99 | 851 |
| Cc1coc2ncnc(N3CCc4nc(Br)sc4C3)c12 [Compound 22, 4-(2-bromo-6,7-dihydrothiazolo[5,4-c]pyridin-5(4H)-yl)-5-methylfuro[2,3-d]pyrimidine] | 96 | 106 |
| Cc1csc2ncnc(N3CCc4nc(Br)sc4C3)c12 [Compound 23, 2-bromo-5-(5-methylthieno[2,3-d]pyrimidin-4-yl)-4,5,6,7-tetrahydrothiazolo[5,4-c]pyridine] | 82 | 204 |
| Cc1cc2c(N3CCc4nc(Br)sc4C3)ncnc2s1 [Compound 24, 2-bromo-5-(6-methylthieno[2,3-d]pyrimidin-4-yl)-4,5,6,7-tetrahydrothiazolo[5,4-c]pyridine] | 102 | 50 |
| Cc1noc2ncnc(N3CCc4nc(Br)sc4C3)c12 [Compound 25, 4-(2-bromo-6,7-dihydrothiazolo[5,4-c]pyridin-5(4H)-yl)-3-methylisoxazolo[5,4-d]pyrimidine] | 113 | 1290 |
